The subject of one assay is K562 cells. The experiment in a line: Cell cycle distribution / subG1 fraction, PI staining, flow cytometry. As to conditions: K562, 2, 5, 10 nM, 48 h. It is filed as cell-based, human. The protocol:
(§1) FIG. 5: Diverse human cell lines or cells were treated with different concentrations of Marbotinib (2 nM, 5 nM or 10 nM) or 5 μM STS for 48 h. Cells were harvested and stained with PI; cell cycle distribution were analyzed by flow cytometry. Cell cycle distribution and changes of subG1 fraction are illustrated. A) K562 cell line; B) NB4 cell line; C) PBMCs; n=2
(§2) After incubation, cells were harvested on ice and fixed in 80% ethanol at −20° C. for at least 1 h. Next, the cells were incubated with RNase for 30 min at room temperature, thereafter stained with propidium iodide (PI), and measured immediately with a flow cytometer. PI intercalates into DNA. In the different phases of the cell cycle, cells incorporate various amounts of PI. This allows the quantification of the cell cycle phases. The subG1 population represents the fraction of apoptotic/necrotic cells, which contains only fragmented DNA (DNA content <2N).
(§3) Additional experiments were performed to ensure the specificity of Marbotinib. Other human blood cell lines that carry no FLT3-ITD were stimulated with Marbotinib and analyzed. K562 cells derived from a patient with chronic myeloid leukemia. These cells are precursors from erythrocytes and carry a mutation of the tyrosine kinase BCR-ABL. The NB4 cells derived from a patient with acute promyelocytic leukemia and carry a mutation in the PML-RARA fusion protein (Noack, Mahendrarajah et al. 2016). Peripheral blood mononuclear cells (PBMCs) were freshly isolated from whole blood samples and used immediately for experiments. K562, NB4 and PBMCs were stimulated with different concentrations of Marbotinib for 48 h and cell cycle distribution was analyzed by flow cytometry. Marbotinib selectively leads to an increase of subG1 fraction only in FLT3-ITD positive cell lines (FIG. 3 and FIG. 4). Cell lines or cells that carry no FLT3-ITD are not affected by Marbotinib (FIG. 5).
(In flow cytometry, cells or beads pass a laser one at a time.)

The test system of a further assay is NB4 cells. The assay is described as above. It is filed as cell-based, human. To be noted: NB4, 2, 5, 10 nM, 48 h. How it is done: as §1, §2, §3
The subject of assay [1] is PBMCs. The description is as above. It is filed as cell-based, human. To be noted: PBMCs, 2, 5, 10 nM, 48 h. The protocol: as §1, §2, §3
Assay [2] concerns MV4-11 cells. The assay can be described thus: AnnexinV FITC/PI apoptosis staining, flow cytometry. It is filed as cell-based, human. As to conditions: MV4-11, 2, 5, 10 nM, 24 h. The protocol: (§4) FIG. 6: […] Illustrated are the different populations of living cells, early apoptosis and late apoptosis/necrosis. To elucidate the apoptotic effects the population of cells in early apoptosis and late apoptosis/necrosis is represented in a separate diagram. A) MV4-11 cell line; B) PBMCs; n=1 To analyze apoptosis cells were treated as indicated and harvested on ice. Thereafter cells were stained with Annexin V FITC for 15 min on ice in the dark. After incubation time cells were stained with PI and measured immediately on flow cytometer. An Annexin V FITC and PI single stained sample was used for compensation and an unstained control sample was used to exclude autofluorescence. […] The subG1 fraction is only a hint for apoptosis therefore we stained MV4-11 cells and PBMCs for AnnexinV FITC/PI. This staining allows a differentiation between early apoptosis and late apoptosis. […] Treating FLT3-ITD positive cells with only 5 nM Marbotinib leads to a strong induction of apoptosis without affecting other cells or cell lines tested here.

Assay [3] concerns PBMCs. Described as above. It is filed as cell-based, human. As to conditions: PBMCs, 2, 5, 10 nM, 24 h. The protocol: as §4
In a further assay the test system is Ba/F3 ITD D835Y mutant. The experiment in a line: FLT3 signaling in Ba/F3 mutants, Western blot. It is filed as cell-based, murine. As to conditions: 5 nM, 2 h. A general note: A western blot detects proteins with antibodies after separation by electrophoresis.
The subject of assay [4] is MV4-11 cells. The assay can be described thus: Vitality assay, DAPI staining, flow cytometry. It is filed as cell-based, human. To be noted: 1, 5, 10, 100 nM, 48 h; especially at 1 nM, 5 nM and 10 nM. How it is done: FIG. 14: Results of vitality assay in which MV4-11 cells were exposed to FLT3-inhibitors Marbotinib, Marbotinib Carbamate and ACC220, at different concentrations, and cell viability staining was performed.
MV4-11 cells were treated with FLT3-inhibitors at different concentrations (1 nM, 5 nM, 10 nM, 100 nM) for 48 h. Viability staining was performed using life cell staining with DAPI. Samples were analysed using flow cytometry via FACS Canto; N=3.

A further assay relates to FLT3-ITD in MV4-11 cells. The experiment in a line: Dephosphorylation of FLT3-ITD and downstream targets over time, Western blot. It is filed as cell-based, human. As to conditions: 5 nM; 2 h, 6 h, 16 h, 24 h. The text has this:
Whole cell lysates were used for SDS-Page and Western blot. The blots show dephosporylation of FLT3-ITD and some of its downstream targets, cell cycle regulators, and DNA damage regulators after treatment with FLT3-inhibitors over time. GAPDH was used as loading control. Control is indicated as CTRL. Marbotinib is indicated as FLT3i3 and Marbotinib-Carbamat is indicated as FLT3i540.

In a further assay the test system is Ba/F3 ITD N676K mutant. The assay can be described thus: FLT3 signaling in Ba/F3 mutants, Western blot. To be noted: 5 nM, 2 h.
In assay [5] the test system is FLT3-ITD in MOLM-13 cells. The assay can be described thus: FLT3-ITD signaling, Western blot of cell lysates. As to conditions: MOLM-13, 5 nM.

Regarding `CC(C)(C)c1cc(NC(=O)Nc2ccc3oc(C(=O)c4cc5cc(O)ccc5[nH]4)cc3c2)no1` [Marbotinib, 1-(5-(tert-butyl)isoxazol-3-yl)-3-(2-(5-hydroxy-1H-indole-2-carbonyl)benzofuran-5-yl)urea], the “cell cycle distribution / subG1 fraction” value with K562 cells, in the assay on NB4 cells and in the assay with PBMCs [1] was “not affected” throughout. Also, the figures for the “apoptosis (AnnexinV FITC/PI)” value in the assay with MV4-11 cells [2] and with PBMCs [3] were “clear induction of apoptosis” and “no changes in basal apoptosis”, respectively. Also, the “signal of p-FLT3 and p-STAT5” value in the assay on Ba/F3 ITD D835Y mutant was “strong reduction”. Further, in the assay with MV4-11 cells [4], the “cell viability, efficacy compared with AC220” value is “more effective than compound AC220”. Further, the “block of FLT3-ITD and its associated signaling cascades” value with FLT3-ITD in MV4-11 cells is “effectively block”. The “signal of p-FLT3” value with Ba/F3 ITD N676K mutant was “strong reduction”. For the same molecule, in the assay on Ba/F3 ITD N676K mutant, the “signal of p-STAT5” value is “strong reduction”. The p-STAT5 entry in assay [5] was “clear reduction”. In addition, in assay [5] (1 h), the p-FLT3-ITD result is recorded as “clearly reduces”.
